Like-named read-outs stand apart in the source and are kept apart here.
What was measured:
human FAAH-1 = molecular target: T1, human FAAH-1 (Homo sapiens, UniProt O00519); assay: Whole cell anandamide hydrolysis assay (HeLa clone 5c5 transfected with human FAAH-1); type: cell-based
T1 sequence (O00519 1-579): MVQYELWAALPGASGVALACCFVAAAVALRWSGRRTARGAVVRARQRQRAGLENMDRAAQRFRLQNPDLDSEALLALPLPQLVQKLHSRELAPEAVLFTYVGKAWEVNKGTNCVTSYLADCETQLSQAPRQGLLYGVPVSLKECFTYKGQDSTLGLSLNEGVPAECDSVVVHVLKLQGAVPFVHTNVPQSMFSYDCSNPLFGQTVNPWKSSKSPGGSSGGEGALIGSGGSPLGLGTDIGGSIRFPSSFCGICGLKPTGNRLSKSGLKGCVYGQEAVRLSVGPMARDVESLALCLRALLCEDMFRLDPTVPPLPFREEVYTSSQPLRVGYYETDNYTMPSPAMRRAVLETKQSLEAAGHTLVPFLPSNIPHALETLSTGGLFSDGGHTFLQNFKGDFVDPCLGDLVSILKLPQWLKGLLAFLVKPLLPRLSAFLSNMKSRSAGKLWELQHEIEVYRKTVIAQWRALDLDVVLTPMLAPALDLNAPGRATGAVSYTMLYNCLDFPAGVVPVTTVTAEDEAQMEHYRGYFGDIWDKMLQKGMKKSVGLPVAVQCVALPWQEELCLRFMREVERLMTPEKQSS
Procedure: FAAH activity was assayed in whole cells using methods disclosed previously (Maccarone et al., 1998 J Biol. Chem. 273:32332 and Bisogno et al., 1997 J Biol. Chem. 272:3315). In addition to the cell lines described in Maccarone et al. and Bisogno et al., MCF7 (ATCC designation HTB-22) and T84 (ATCC designation CCL-248) cell lines were also used in these assays.
cDNA expression clone for human FAAH-1 (in pcDNA3 vector) (Genbank Accession U82535; obtained from Benjamin Cravatt, Scripps Research Institute, La Jolla, Calif.) was linearized by digestion with BglII (New England Biolabs) and transfected by calcium phosphate into human HeLa cells (ATCC catalog #CCL-2). […] Following transfection, a stable HeLa-derived clone, designated 5c5, was isolated by single colony purification and expanded and maintained in modified Eagles medium (MEM; VWR catalog #45000-300) containing 10% fetal bovine serum (FBS), 2 mM L-glutamine, and 0.5 mg/mL G-418 (Sigma catalog #G5013).
Clone 5c5 (50,000 cells in 150 μL) was seeded into 96-well plates and incubated overnight (5% CO2, 37° C.). Media was carefully replaced with 180 μL DMEM/F12 medium (VWR catalog #45000-350) containing 15 mM HEPES, pH 7.4 and 0.1% fatty acid free BSA (Sigma catalog #A0281). Then, 2 μL of 100× desired final concentrations of certain exemplary compounds described herein were made up in DMSO, added to wells containing cells, and plates were incubated at 37° C. for 10 min. Next, 20 μL of 5 μM anandamide (Cayman catalog #90050) spiked with 8 μCi of anandamide-(ethanolamine-1-[^3H]) (American Radiolabeled Chemicals, Inc., catalog #ART 626) was added to the cells and the plates were incubated for an additional 15 min at 37° C. The reactions were terminated by chilling the plates on ice and adding 20 μL of 0.5M of potassium phosphate buffer (adjusted to pH 2.1 with phosphoric acid).
The acidified reactions were transferred to 96-well filter plates (0.25 mL capacity/well, 1.2 micron glass fiber pre-filter packed above 0.65 micron pore-size PVDF membrane, Millipore catalog MSFCN6B50) containing 25 μL charcoal (neutral activated carbon, Fisher Scientific catalog C170-500) per well. Prior to the assay, charcoal was measured and loaded onto the plate using an aluminum 96-well column loading device (Millipore catalog MACL09625). The filter plate was assembled over an empty 96-well plate (Costar) using a centrifuge alignment frame (Millipore catalog MACF09604) to allow for collection of the filtrate in the receiver plate. The charcoal glass-fiber filter plates were pre-washed with methanol by centrifugation 650×g for 10 min). Next, 80 μL of water was added to the wells of the pre-washed 96 well charcoal filter plate. Then, 90 μL of the acidified reaction mixture was added to the water in the wells of the charcoal plate. The samples were centrifuged as above. The substrate remained bound to the charcoal, whereas the [^3H]-ethanolamine product formed flowed through and was transferred to the microplates containing scintillation cocktail and quantified in a micro-plate scintillation counter (Perkin-Elmer Microbeta). Control reactions with either no cells or cells treated with DMSO alone were performed in triplicate and used to define background (no cells) and 100% activity (DMSO alone).
Following subtraction of background radioactivity, data were expressed as percent inhibition relative to 100% activity and fit with a nonlinear regression curve using GraphPad Prism Software (GraphPad Software Inc). IC50 values were calculated from the resulting dose-response curves constrained at top and bottom to 100% and 0%, respectively.

FAAH = molecular target: T2, FAAH (Homo sapiens, UniProt O00519); assay: FAAH inhibition, human brain membrane homogenate assay; type: biochemical
T2 construct: Reactions were initiated by adding 12.5 μg of brain microsome; tissue ABS, Inc; host or cells: human brain cerebral cortex, membrane/microsome fraction pooled from 3 donors
T2 sequence (O00519 1-579): T1 sequence (O00519 1-579)

[1] = HeLa clone 5c5 expressing human FAAH-1, read-out: human FAAH whole cell IC50
[2] = human brain homogenate, average activity, read-out: Human brain Extract FAAH IC50

Row | Compound | IC50 (human FAAH-1; [1]) [nM] | IC50 (FAAH; [2]) [nM] | IC50 (human FAAH-1) [nM] | IC50 (FAAH) [nM]
1 | COc1cc(NC(=O)C(=O)c2c(C)n(Cc3ccc(Cl)cc3)c3c(OC)cccc23)ccn1 [Compound 51, 2-(1-(4-chlorobenzyl)-7-methoxy-2-methyl-1H-indol-3-yl)-N-(2-methoxypyridin-4-yl)-2-oxoacetamide] | 100 to 1000 | 100 to 1000 | – | –
2 | COc1cnc2c(c1)c(C(=O)C(=O)Nc1ccnc(OC)c1)c(C)n2Cc1ccc(Cl)cn1 [Compound 41, 2-(1-((5-chloropyridin-2-yl)methyl)-5-methoxy-2-methyl-1H-pyrrolo[2,3-b]pyridin-3-yl)-N-(2-methoxypyridin-4-yl)-2-oxoacetamide] | < 100 | < 100 | – | –
3 | COc1cc(NC(=O)C(=O)c2c(C)n(Cc3ccc(Cl)cc3)c3ccc(C(=O)N(C)C)cc23)ccn1 [Compound 6, 1-(4-chlorobenzyl)-3-(2-(2-methoxypyridin-4-ylamino)-2-oxoacetyl)-N,N,2-trimethyl-1H-indole-5-carboxamide] | 100 to 1000 | 100 to 1000 | – | –
4 | COc1ccc(Cn2c(C)c(C(=O)C(=O)Nc3ccnc(OC)c3)c3cc(OC)c(C)cc32)nc1 [Compound 96, 2-(5-methoxy-1-((5-methoxypyridin-2-yl)methyl)-2,6-dimethyl-1H-indol-3-yl)-N-(2-methoxypyridin-4-yl)-2-oxoacetamide] | < 100 | < 100 | – | –
5 | COc1cc(NC(=O)C(=O)c2c(C)n(Cc3ncc(Cl)cc3F)c3ccc(C)cc23)ccn1 [Compound 33, 2-(1-((5-chloro-3-fluoropyridin-2-yl)methyl)-2,5-dimethyl-1H-indol-3-yl)-N-(2-methoxypyridin-4-yl)-2-oxoacetamide] | < 100 | < 100 | – | –
6 | COc1cc(NC(=O)C(=O)c2c(C)n(Cc3ccc(Cl)cc3)c3ccc(OC)c(OC)c23)ccn1 [Compound 56, 2-(1-(4-chlorobenzyl)-4,5-dimethoxy-2-methyl-1H-indol-3-yl)-N-(2-methoxypyridin-4-yl)-2-oxoacetamide] | 100 to 1000 | 100 to 1000 | – | –
7 | COc1cc(NC(=O)C(=O)c2c(C)n(Cc3ncc(Cl)cc3F)c3cc(Cl)c(OC)cc23)ccn1 [Compound 97, 2-(6-chloro-1-((5-chloro-3-fluoropyridin-2-yl)methyl)-5-methoxy-2-methyl-1H-indol-3-yl)-N-(2-methoxypyridin-4-yl)-2-oxoacetamide] | < 100 | < 100 | – | –
8 | COc1ccc2c(c1)c(C(=O)C(=O)Nc1ccnc(O)c1)c(C)n2Cc1ccc(Cl)cc1 [Compound 50, 2-(1-(4-chlorobenzyl)-5-methoxy-2-methyl-1H-indol-3-yl)-N-(2-hydroxypyridin-4-yl)-2-oxoacetamide] | 1000 to 10000 | 1000 to 10000 | – | –
9 | C=Cc1ccc2c(c1)c(C(=O)C(=O)Nc1ccnc(OC)c1)c(C)n2Cc1ccc(Cl)cc1 [Compound 27, 2-(1-(4-chlorobenzyl)-2-methyl-5-vinyl-1H-indol-3-yl)-N-(2-methoxypyridin-4-yl)-2-oxoacetamide] | < 100 | < 100 | – | –
10 | COc1cc(NC(=O)C(=O)c2c(C)n(Cc3ccc(Cl)cc3)c3ccc([N+](=O)[O-])cc23)ccn1 [Compound 19, 2-(1-(4-chlorobenzyl)-2-methyl-5-nitro-1H-indol-3-yl)-N-(2-methoxypyridin-4-yl)-2-oxoacetamide] | < 100 | < 100 | – | –
11 | COc1cc(NC(=O)C(=O)c2c(C)n(Cc3ccc(Cl)cn3)c3ncc(C)cc23)ccn1 [Compound 75, (1-((5-chloropyridin-2-yl)methyl)-2,5-dimethyl-1H-pyrrolo[2,3-b]pyridin-3-yl)-N-(2-methoxypyridin-4-yl)-2-oxoacetamide] | < 100 | < 100 | – | –
12 | COc1cc(NC(=O)C(=O)c2c(C)n(Cc3ccc(Cl)cn3)c3ccc(N)cc23)ccn1 [Compound 65, 2-(5-amino-1-((5-chloropyridin-2-yl)methyl)-2-methyl-1H-indol-3-yl)-N-(2-methoxypyridin-4-yl)-2-oxoacetamide] | < 100 | 100 to 1000 | – | –
13 | COc1cc(NC(=O)C(=O)c2c(C)n(Cc3ccc(Cl)cn3)c3cc(OC)c(Cl)cc23)ccn1 [Compound 67, 2-(5-chloro-1-((5-chloropyridin-2-yl)methyl)-6-methoxy-2-methyl-1H-indol-3-yl)-N-(2-methoxypyridin-4-yl)-2-oxoacetamide] | < 100 | < 100 | – | –
14 | COc1cc(NC(=O)C(=O)c2c(C)n(Cc3ncc(Cl)cc3Cl)c3ccccc23)ccn1 [Compound 31, 2-(1-((3,5-dichloropyridin-2-yl)methyl)-2-methyl-1H-indol-3-yl)-N-(2-methoxypyridin-4-yl)-2-oxoacetamide] | < 100 | < 100 | – | –
15 | COc1cc(NC(=O)C(=O)c2c(C)n(Cc3ccc(Cl)cc3)c3cc(OC)c(OC)cc23)ccn1 [Compound 44, 2-(1-(4-chlorobenzyl)-5,6-dimethoxy-2-methyl-1H-indol-3-yl)-N-(2-methoxypyridin-4-yl)-2-oxoacetamide] | < 100 | < 100 | – | –
16 | COc1cc(NC(=O)C(=O)c2c(C)n(Cc3ccc(Cl)cc3)c3ccc(N(C)C(=O)OC(C)(C)C)cc23)ccn1 [Compound 7, Tert-butyl(1-(4-chlorobenzyl)-3-(2-((2-methoxypyridin-4-yl)amino)-2-oxoacetyl)-2-methyl-1H-indol-5-yl)(methyl)carbamate] | 100 to 1000 | 100 to 1000 | – | –
17 | COc1cc(NC(=O)C(=O)c2c(C)n(Cc3ncc(Cl)cc3Cl)c3ccc(C)cc23)ccn1 [Compound 30, 2-(1-((3,5-dichloropyridin-2-yl)methyl)-2,5-dimethyl-1H-indol-3-yl)-N-(2-methoxypyridin-4-yl)-2-oxoacetamide] | < 100 | < 100 | – | –
18 | COc1ccc(Cn2c(C)c(C(=O)C(=O)Nc3ccnc(OC)c3)c3cc(OC)c(Cl)cc32)nc1 [Compound 98, 2-(6-chloro-5-methoxy-1-((5-methoxypyridin-2-yl)methyl)-2-methyl-1H-indol-3-yl)-N-(2-methoxypyridin-4-yl)-2-oxoacetamide] | < 100 | < 100 | – | –
19 | COc1cc(NC(=O)C(=O)c2c(C)n(Cc3ncc(F)cc3F)c3cc(F)c(OC)cc23)ccn1 [Compound 101, 2-(1-((3,5-difluoropyridin-2-yl)methyl)-6-fluoro-5-methoxy-2-methyl-1H-indol-3-yl)-N-(2-methoxypyridin-4-yl)-2-oxoacetamide] | < 100 | < 100 | – | –
20 | COc1cc(NC(=O)C(=O)c2c(C)n(Cc3ncc(F)cc3F)c3ccc(C)cc23)ccn1 [Compound 88, 2-(1-((3,5-difluoropyridin-2-yl)methyl)-2,5-dimethyl-1H-indol-3-yl)-N-(2-methoxypyridin-4-yl)-2-oxoacetamide] | – | – | < 100 | < 100
